In patent US5968952A, “Farnesyl transferase inhibiting 2-quinolone derivatives” (Janssen Pharmaceutica, N.V., priority 1995, dated 1999):

What was measured:
[1] = test system: NIH 3T3 cells transformed by the T24 activated human H-ras gene; experiment: Ras-Transformed Cell Phenotype Reversion Assay; assay type: cell-based, mouse; settings: NIH3T3; Table 8; T24 H-ras transformed NIH 3T3 cells; 72 hours; cell counts
Excerpt: "Ras-Transformed Cell Phenotype Reversion Assay" Insertion of activated oncogenes such as the mutant ras gene into mouse NIH 3T3 cells converts the cells to a transformed phenotype. The cells become tumorigenic, display anchorage independent growth in semi-solid medium and lose contact inhibition. Loss of contact inhibition produces cell cultures which no longer form uniform monolayers. Rather, the cells pile up into multicellular nodules and grow to very high saturation densities in plastic tissue culture dishes. Agents such as protein farnesyl transferase inhibitors which revert the ras transformed phenotype restore the uniform monolayer growth pattern to cells in culture. This reversion is easily monitored by counting the number of cells in tissue culture plates. Transformed cells will achieve higher cell numbers than cells which have reverted to an untransformed phenotype. Compounds which revert the transformed phenotype should produce antitumor effects in tumors bearing ras gene mutations. Method Compounds are screened in tissue culture in NIH 3T3 cells transformed by the T24 activated human H-ras gene. Cells are seeded at an initial density of 200,000 cells per well (9.6 cm^2 surface area) in six-well cluster tissue culture plates. Test compounds are immediately added to 3.0 ml cell growth mediuim in a 3.0 μl volume of DMSO, with a final concentration of DMSO in the cell growth medium of 0.1%. […] Then the cells are detached in 1.0 ml trypsin-EDTA cell dissociation medium and counted on a Coulter particle counter. Measurements Cell numbers expressed as cells per well are measured using a Coulter Particle Counter. All cell counts were corrected for the initial cell input density by subtracting 200,000. Control cell counts=[cell counts from cells incubated with DMSO vehicle--200,000] Test compound cell counts=[cell counts from cells incubated with test compound--200,000]. [formula]

[2] = target: T1, Human farnesyl protein transferase (Homo sapiens, UniProt P49354+P49356); experiment: In Vitro Assay for Inhibition of Farnesyl Protein Transferase ([3H] Scintillation Proximity Assay); assay type: biochemical; settings: Table 7; human enzyme from KHOS cells; biotinylated lamin B peptide substrate; 60 min, 37° C.; read-out: IC50 (concentration of test compound producing 50% inhibition of enzyme activity)
T1 construct: were used as a source of human enzyme; endogenous in cells; host or cells: Kirsten virus transformed human osteosarcoma (KHOS) cells (ATCC), grown as monolayers or as solid tumors in nude mice; ammonium sulfate fraction and Q Sepharose pool
Method: In Vitro Assay for Inhibition of Farnesyl Protein Transferase Human farnesyl protein transferase was prepared essentially as described ([…] al., Methods: A Companion to Methods in Enzymology vol 1, 241-245, 1990). Kirsten virus transformed human osteosarcoma (KHOS) cells (American Type Culture Collection, Rockvill, Md., USA) grown as solid tumors in nude mice or grown as monolayer cell cultures were used as a source of human enzyme. Briefly, cells or tumors were homogenized in buffer containing 50 mM Tris, 1 mM EDTA, 1 mM EGTA and 0.2 mM phenylmethylsulfonylfluoride (pH 7.5). The homogenates were centrifuged 28,000× g for 60 min and the supernatants collected. A 30-50% ammonium sulfate […] prepared, and the resulting precipitate was resuspended in a small (10 to 20 ml) volume of dialysis buffer containing 20 mM Tris, 1 mM dithiothreitol and 20 μM ZnCl2. The ammonium sulfate fraction was dialyzed overnight against two changes of the same buffer. The dialyzed material was applied to a 10×1 cm Q Fast Flow Sepharose (Pharmacia LKB Biotechnology Inc., Piscataway, N.J., USA) which had been preequilibrated with 100 ml of dialysis buffer supplemented with 0.05M NaCl. The column was washed with an additional 50 ml of dialysis buffer plus 0.05M NaCl followed by a gradient from 0.05M to 0.25M NaCl prepared in dialysis buffer. The enzyme activity was eluted with a linear gradient of 0.25 to 1.0M NaCl prepared in the dialysis buffer. Fractions containing 4 to 5 ml volumes of column eluate were collected and analyzed for farnesyl protein transferase activity. Fractions with enzyme activity were pooled and supplemented with 100 μM ZnCl2. Enzyme samples were stored frozen at -70° C. The activity of farnesyl protein transferase was measured using the Farnesyl Transferase [^3 H] Scintillation Proximity Assay (Amersham International plc., England) under the conditions specified by the manufacturer. […] The reaction mixture was warmed to 37° C. The enzyme reaction was started by adding 20 μl of diluted human farnesyl protein transferase. […] Reactions were terminated by the addition of STOP/scintillation proximity bead reagent (Amersham). The reaction product [^3 H]-farnesyl-(Cys)-biotin lamin B peptide was captured on the streptavidin linked scintillation proximity bead. The amount of [^3 H]-farnesyl-(Cys)-biotin lamin B peptide synthesized in the presence or absence of test compounds was quantified as cpm by counting on a Wallac Model 1480 Microbeta Liquid Scintillation Counter. The cpm of product was considered to be farnesyl protein transferase activity. The protein farnesyl transferase activity observed in the presence of test compound was normalized to farnesyl transferase activity in the presence of 10% DMSO and expressed as per cent inhibition. […] W. Johnson Pharmaceutical Research Institue (Spring House, Pa., USA) on a VAX computer.

Compound | IC50 [1] | IC50 [2]
O=c1cc(-c2cccc(Cl)c2)c2cc(C(c3ccc(Cl)cc3)n3ccnc3)ccc2[nH]1 (single isomer, unassigned) [Compound 23] | 204 nM | 15 nM
CCC(c1ccc(Cl)cc1)(c1ccc2c(c1)c(-c1cccc(Cl)c1)cc(=O)n2C)n1ccnc1 (stereo not shown) [Compound 63] | 294 nM | 30 nM
Cc1cncn1C(C)(c1ccc(Cl)cc1)c1ccc2c(c1)c(-c1cccc(Cl)c1)cc(=O)n2C (stereo not shown) [Compound 64, 4-(3-chlorophenyl)-6-[1-(4-chlorophenyl)-1-(5-methyl-1H-imidazol-1-yl)ethyl]-1-methyl-2(1H)-quinolinone] | 133 nM | 11 nM
Cn1c(=O)cc(-c2cccc(Cl)c2)c2cc(C(CO)(c3ccc(Cl)cc3)n3ccnc3)ccc21 (stereo not shown) [Compound 66] | 53 nM | 5.6 nM
COCCn1c(=O)cc(-c2cccc(Cl)c2)c2cc(C(c3ccc(Cl)cc3)n3ccnc3)ccc21 (stereo not shown) [Compound 77, 4-(3-chlorophenyl)-6-[(4-chlorophenyl)(1H-imidazol-1-yl)methyl]-1-(2-methoxyethyl)-2(1H)-quinolinone ethanedioate (2:3) monohydrate] | 189 nM | 7.2 nM
Cn1c(=O)cc(-c2ccc3c(c2)OCO3)c2cc(C(c3ccc(Cl)cc3)n3ccnc3)ccc21 (stereo not shown) [Compound 83, 6-[(4-chlorophenyl)(1H-imidazol-1-yl)methyl]-4-(1,3-benzodioxol-5-yl)-1-methyl-2(1H)-quinolinone ethanedioate (1:1)] | 68 nM | 3.4 nM
Cc1cc(C(c2ccc(Cl)cc2)n2ccnc2)cc2c(-c3cccc(Cl)c3)cc(=O)n(C)c12 (stereo not shown) [Compound 89] | 445 nM | –
